Reference: patent US8173821B2, “Serotonin and norepinephrine reuptake inhibitor” (Eli Lilly and Company, priority 2009, dated 2012)

Experiments:
[1] = target: T1, Human dopamine transporter (DAT) (Homo sapiens, UniProt Q01959); assay: In vitro transporter affinity assay (SPA radioligand binding), DAT; details: membranes of transfected HEK293 cells, 3H-WIN 35428; read-out: Ki hDAT
T1 construct: expressed in transfected cells; host or cells: HEK293 (membrane stocks)
Experimental: (§1) Human serotonin transporter (SERT), norepinephrine transporter (NET), or dopamine transporter (DAT) are cloned into a pcDNA3 vector and stably transfected into HEK293 cells. […] Fluoxetine (100 μM) is used to determine non-specific binding, and venlafaxine is used as a positive control. NET membranes are used at a concentration of 8 μg/well in assay buffer containing 50 mM Tris, 300 mM NaCl, and 5 mM KCl (pH 7.4). ^3H-Nisoxetine is used as the tracer, 100 μM desipramine serves as a measure of non-specific binding, and nisoxetine is used as the positive control. For DAT binding assays, the assay buffer is the same as for SERT, membranes are used at 20 μg/well, 100 μM nomifensine is used to determine non-specific binding, ^3H-WIN 35428 (Perkin Elmer) serves as the radiotracer, and nomifensine is used as the positive control. In all cases, 0.5 mg/well of wheat-germ agglutinin scintillation proximity assay beads (WGA-SPA, GE Health Sciences) are used to capture the membranes, and plates are incubated for 3 hours at room temperature. Radioactivity is measured and Ki values calculated using a four-parameter logistic curve fitting program (ActivityBase v5.3.1.22).

serotonin transporter = target: T2, serotonin transporter (Rattus norvegicus, UniProt P31652); assay: In vivo transporter occupancy assay; details: 1 hr. post dosing
T2 construct: from tissue; host or cells: rat frontal cortex, in vivo
T2 sequence (P31652 whole entry): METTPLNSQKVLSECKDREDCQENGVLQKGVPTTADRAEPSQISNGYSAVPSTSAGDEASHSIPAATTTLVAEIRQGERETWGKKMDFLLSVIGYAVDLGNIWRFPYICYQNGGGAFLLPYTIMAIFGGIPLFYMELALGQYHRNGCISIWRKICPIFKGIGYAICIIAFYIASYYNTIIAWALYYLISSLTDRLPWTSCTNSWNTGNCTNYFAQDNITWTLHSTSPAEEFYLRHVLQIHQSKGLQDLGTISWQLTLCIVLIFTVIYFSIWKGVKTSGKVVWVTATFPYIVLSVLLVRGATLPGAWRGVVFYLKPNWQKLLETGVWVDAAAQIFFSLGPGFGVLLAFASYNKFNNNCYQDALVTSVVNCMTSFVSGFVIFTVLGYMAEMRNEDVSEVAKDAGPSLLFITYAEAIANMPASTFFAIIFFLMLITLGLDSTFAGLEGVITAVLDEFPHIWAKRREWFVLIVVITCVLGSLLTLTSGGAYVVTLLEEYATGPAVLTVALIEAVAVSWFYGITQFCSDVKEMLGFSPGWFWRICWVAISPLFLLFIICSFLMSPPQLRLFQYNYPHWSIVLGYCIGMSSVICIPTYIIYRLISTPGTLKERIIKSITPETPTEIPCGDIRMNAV
Experimental: Male Sprague-Dawley rats weighing 240-280 gm in groups of three are used to determine serotonin transporter occupancy. Animals are fasted at least 12 hr. before the start of each experiment. Animals are orally administered vehicle or 0.10, 0.33, 1.00, 3.33 or 10.00 mg/kg doses of test compound in 4% Glucose in 25 mM Phosphate buffer, (pH=3.0) containing 0.1, 0.33, 1, 3.33, or 10% CAPTISOL™ (concentration of CAPTISOL™ (%)=dose of test compound (mg/kg)). […] After an additional 40 min., rats are sacrificed via cervical dislocation, and a portion of the frontal cortex is removed and placed on dry ice. An additional control group of three rats is dosed with paroxetine maleate at 12 mg/kg, i.v., followed by N,N-dimethyl-2-(2-amino-4-cyanophenylthio)-benzylamine (10 μg/kg) 1 hr. later.
Tissues are allowed to thaw and then four volumes (w/v) of acetonitrile containing 0.1% formic acid is added. Samples are homogenized using an ultrasonic dismembrator probe and centrifuged for 16 min. at 14,000×g. One volume of the supernatant is added to 3 volumes of water in an autosampler vial and vortexed. Separation is achieved with a Zorbax C18 HPLC column and a mobile phase gradient of from 20% to 90% acetonitrile/water, each with 0.1% formic acid. The total HPLC run time is 3.5 min with an additional 2.0 min re-equilibration time. An API4000 triple quadrupole mass spectrometer (Applied Biosystems, Foster City, Calif., USA) operating in MRM mode is used for detection. The ion transition monitored is 284.1/239.1 m/z for N,N-dimethyl-2-(2-amino-4-cyanophenylthio)-benzylamine.
The level of N,N-dimethyl-2-(2-amino-4-cyanophenylthio)-benzylamine (tracer) in the cortex of vehicle-pretreated animals represents the sum of nonspecific and specific binding and is assigned the value of 0% occupancy (all receptors available to the tracer). The lower level of tracer in animals pretreated with the very high intravenous dose of paroxetine maleate, the positive control group, represents the nonspecific binding and is assigned the value of 100% occupancy (no receptors available to the tracer). Levels of tracer in the cortex following oral administration of test compound are interpolated linearly between these two extremes in order to determine the percent serotonin transporter occupancy. Data are expressed as means±SEM (n=3/group) calculated using Prism version 3.0 (GraphPad Software Inc., San Diego, Calif., USA). The ED80 values are obtained by fitting the data to a sigmoidal curve using nonlinear regression.

[2] = target: T3, Human norepinephrine (NET) transporter (Homo sapiens, UniProt P23975); assay: In vitro inhibitor activity assay (3H-norepinephrine uptake); type: cell-based; details: transfected HEK293 cells, read-out: IC50 hNET (norepinephrine reuptake)
T3 construct: expressed in transfected cells; host or cells: HEK293
T3 sequence (P23975 whole entry): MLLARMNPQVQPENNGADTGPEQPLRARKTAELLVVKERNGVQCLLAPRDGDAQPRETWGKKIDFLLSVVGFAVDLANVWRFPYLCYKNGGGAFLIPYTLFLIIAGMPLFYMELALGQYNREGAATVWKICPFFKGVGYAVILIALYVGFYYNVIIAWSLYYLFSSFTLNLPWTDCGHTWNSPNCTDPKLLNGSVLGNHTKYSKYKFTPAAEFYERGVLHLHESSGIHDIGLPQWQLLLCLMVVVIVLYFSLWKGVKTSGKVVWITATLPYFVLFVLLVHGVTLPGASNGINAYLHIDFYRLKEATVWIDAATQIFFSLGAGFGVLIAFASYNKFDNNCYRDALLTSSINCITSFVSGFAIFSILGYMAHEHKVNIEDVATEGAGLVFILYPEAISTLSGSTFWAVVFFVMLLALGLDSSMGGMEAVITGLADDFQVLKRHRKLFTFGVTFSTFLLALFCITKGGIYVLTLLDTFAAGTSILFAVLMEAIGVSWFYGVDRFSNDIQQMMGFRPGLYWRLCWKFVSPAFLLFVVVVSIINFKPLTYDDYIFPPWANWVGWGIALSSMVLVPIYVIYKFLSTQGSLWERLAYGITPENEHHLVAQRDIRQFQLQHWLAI
Experimental: (§2) Human serotonin (SERT) or norepinephrine (NET) transporters are cloned into a pcDNA3 vector and stably transfected into HEK293 cells. Both assays are modified from methods described by Eshleman et al., J. Pharmacol. Exptl Ther., 289, 877-885 (1999)) and Wall et al., Mol. Pharmacol., 47, 544-550 (1995). Cells are grown on poly-D-lysine coated flasks or 96-well plates in D-MEM/F-12 3:1 (3 part of Dulbecco's Modified Eagle Medium in 1 part of Nutrient Mix F-12 medium) containing 5% fetal bovine serum, 250 μg/mL geneticin, and 20 mM Hepes. Cells are plated at 40,000 cells per well in 200 μL of medium and incubated for 18-24 hours at 37° C. prior to the assay. The assay uptake buffer consists of Krebs-Ringer bicarbonate stock supplemented with 1.26% sodium bicarbonate, 20 mM HEPES, and 100 μM each of pargyline and ascorbic acid. Following a 30 minute pre-incubation with the compound or indatraline (as a positive control), ^3H-serotonin or ^3H-norepinephrine is added for 1 min. and 50 sec. The ^3H-substrate is then removed, and the cells washed 4× with 100 μL of cold uptake buffer using multimek. […] Microscint™ 40 is added to each well and the radioactivity is quantitated for 1 min. per well. Results are analyzed as IC50 values using a four-parameter logistic curve fitting program (ActivityBase v5.3.1.22).

[3] = target: T4, norepinephrine transporter (Rattus norvegicus, UniProt Q63380); assay: Alpha MMT: monoamine depletion inhibition assay; type: in vivo; details: rat cortex
T4 construct: from tissue; host or cells: rat cortex, in vivo
T4 sequence (Q63380 1-617): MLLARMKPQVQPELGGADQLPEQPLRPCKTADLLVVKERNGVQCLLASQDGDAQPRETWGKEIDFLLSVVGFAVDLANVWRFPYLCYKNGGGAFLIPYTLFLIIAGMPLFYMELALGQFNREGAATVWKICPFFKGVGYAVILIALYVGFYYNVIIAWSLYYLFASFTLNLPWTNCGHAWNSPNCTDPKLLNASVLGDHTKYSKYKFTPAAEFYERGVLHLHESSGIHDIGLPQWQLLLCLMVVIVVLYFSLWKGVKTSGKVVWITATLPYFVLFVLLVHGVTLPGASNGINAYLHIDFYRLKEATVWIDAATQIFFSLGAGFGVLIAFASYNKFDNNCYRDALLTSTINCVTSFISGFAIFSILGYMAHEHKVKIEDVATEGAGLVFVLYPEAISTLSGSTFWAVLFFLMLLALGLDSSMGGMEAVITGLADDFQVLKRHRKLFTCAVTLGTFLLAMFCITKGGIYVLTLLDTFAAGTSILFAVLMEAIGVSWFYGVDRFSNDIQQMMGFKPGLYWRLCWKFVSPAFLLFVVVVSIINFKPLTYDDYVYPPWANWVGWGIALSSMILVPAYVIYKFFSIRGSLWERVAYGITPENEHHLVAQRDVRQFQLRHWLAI
Text: DL-Para-chloroamphetamine (PCA) is transported into serotonergic neurons via the neuronal transporter and produces a long-lasting depletion of rat brain serotonin (5-HT) concentrations. Alpha-methyl-m-tyrosine (α-MMT) is a noradrenergic depleting agent that is β-hydroxylated to metaraminol in vivo and actively transported into norepinephrine (NE) neurons via the neuronal transporter producing a decrease in NE levels in rat brain. The depletion of rat brain 5-HT levels by PCA and rat cortical NE concentrations by α-MMT is blocked by agents with 5-HT and NE reuptake inhibitor activity. Compounds of the present invention may be assayed for their activity to prevent the depletion of rat brain 5-HT concentrations by PCA and the depletion of rat cortical NE concentrations by a-MMT in fed and fasted rats in vivo using the following methods.
Male Sprague Dawley rats weighing 160-180 grams are fasted overnight or allowed food ad libidum. […] All compounds are administered at 1 mL/kg. Animals are sacrificed 2 hr. after PCA or α-MMT administration. Tissues are dissected, frozen on dry ice and stored at −70° prior to analysis. […] The data are collected using an EZChrom™ chromatography data system (Scientific Software, San Ramon, Calif.) which calculates peak heights and sample concentrations. Analysis of variance, followed by Tukey's Honestly Significant Difference test post hoc, identifies significant differences between treatment groups (P≦0.05). Doses that antagonized the PCA- or α-MMT-induced depletion of monoamines by 50 percent, (ED50's) are calculated using a best-fit linear regression analysis.

Formalin induced pain = assay: Manual formalin test; type: in vivo; details: rat
Experimental: The manual formalin test is performed in custom-made Plexiglas boxes approx. 25 cm×25 cm×20 cm in size. A mirror placed at the back of the cage allows the unhindered observation of the formalin injected paw. Rats (Charles River (CRL) Sprague Dawley (SD)) are placed individually in the cubicles at least 30 min. prior to the experiment. All testing is conducted between 08:00 and 14:00 h and the testing room temperature is maintained at 21-23° C. Peripherally administered test compounds are dosed at varying times before the formalin challenge. Formalin (50 μL of a 5% solution in saline) is injected subcutaneously into the dorsal lateral surface of the right hind paw with a 27 gauge needle. Observation starts immediately after the formalin injection. Formalin induced pain is quantified by recording the number of seconds each licking event lasts in 5 min. intervals. The pain scoring is measured for 50 min. after the formalin injection. Two phases of pain behavior are observed as previously described (Wheeler-Aceto, H., Porreca, F. and Cowan, A., The rat paw formalin test: comparison of noxious agents, Pain 40 (1990) 229-238.). The early phase starts immediately after the formalin injection and lasts approximately 5 min., followed by the late phase that starts between minutes 10-15 with a maximum response typically observed around 25-35 min. after the formalin injection. After the 50 min. observation period, animals are sacrificed with CO2.
Of the different scoring parameters reported for the formalin test, the total time spent licking and biting the injected paw is considered to be most relevant. (Abbott et al., The formalin test: scoring properties of the first and second phases of the pain response in rats, Pain 60 (1995) 91-102; Coderre et al., The formalin test: a validation of the weighted-scores method of the behavioral pain rating, Pain 54 (1993) 43-50).) The early phase score is the sum of time spent licking (seconds) from time 0 to 5 min. The late phase score is obtained by adding the total number of seconds spent licking from minute 16 to min. 40 of the observation period. Data are presented as means with standard errors of means (±SEM). Data is evaluated by one-way analysis of variance (ANOVA) and the appropriate contrasts analyzed by Dunnett “t′ test for two sided comparisons. Differences are considered to be significant if the P-value is less than 0.05. (Abbott, supra.; Coderre, supra.; and Wheeler-Aceto, supra.)

[4] = target: T5, Human norepinephrine transporter (NET) (Homo sapiens, UniProt P23975); assay: In vitro transporter affinity assay (SPA radioligand binding), NET; details: membranes of transfected HEK293 cells, 3H-nisoxetine; read-out: Ki hNET
T5 construct: expressed in transfected cells; host or cells: HEK293 (membrane stocks)
T5 sequence (P23975 whole entry): as the sequence (P23975 whole entry) above
Experimental: as §1

[5] = target: T6, Human serotonin transporter (SERT) (Homo sapiens, UniProt P31645); assay: In vitro transporter affinity assay (SPA radioligand binding), SERT; details: membranes of transfected HEK293 cells, 3H-citalopram; read-out: Ki hSERT
T6 construct: expressed in transfected cells; host or cells: HEK293 (membrane stocks)
T6 sequence (P31645 whole entry): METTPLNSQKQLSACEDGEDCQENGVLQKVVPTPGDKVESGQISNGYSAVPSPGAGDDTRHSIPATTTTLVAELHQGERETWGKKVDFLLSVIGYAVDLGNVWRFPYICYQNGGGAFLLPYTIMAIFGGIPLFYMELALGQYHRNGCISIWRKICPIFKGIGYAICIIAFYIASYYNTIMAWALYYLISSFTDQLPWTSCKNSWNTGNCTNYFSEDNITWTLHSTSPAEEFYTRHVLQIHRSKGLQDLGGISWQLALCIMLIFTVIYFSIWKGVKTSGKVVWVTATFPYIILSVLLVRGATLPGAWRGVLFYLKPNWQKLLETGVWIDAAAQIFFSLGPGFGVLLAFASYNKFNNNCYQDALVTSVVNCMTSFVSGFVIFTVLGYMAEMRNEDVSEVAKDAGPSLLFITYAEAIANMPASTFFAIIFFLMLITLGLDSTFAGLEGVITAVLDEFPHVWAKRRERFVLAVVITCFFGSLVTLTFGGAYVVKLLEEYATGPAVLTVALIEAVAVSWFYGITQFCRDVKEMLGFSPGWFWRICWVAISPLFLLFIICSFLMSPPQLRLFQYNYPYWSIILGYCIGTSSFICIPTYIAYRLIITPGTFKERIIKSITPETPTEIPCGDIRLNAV
Experimental: as §1

[6] = target: T7, Human serotonin (SERT) transporter (Homo sapiens, UniProt P31645); assay: In vitro inhibitor activity assay (3H-serotonin uptake); type: cell-based; details: transfected HEK293 cells, read-out: IC50 hSERT (serotonin reuptake)
T7 construct: expressed in transfected cells; host or cells: HEK293
T7 sequence (P31645 whole entry): as above
Experimental: as §2

T1 sequence (Q01959 whole entry): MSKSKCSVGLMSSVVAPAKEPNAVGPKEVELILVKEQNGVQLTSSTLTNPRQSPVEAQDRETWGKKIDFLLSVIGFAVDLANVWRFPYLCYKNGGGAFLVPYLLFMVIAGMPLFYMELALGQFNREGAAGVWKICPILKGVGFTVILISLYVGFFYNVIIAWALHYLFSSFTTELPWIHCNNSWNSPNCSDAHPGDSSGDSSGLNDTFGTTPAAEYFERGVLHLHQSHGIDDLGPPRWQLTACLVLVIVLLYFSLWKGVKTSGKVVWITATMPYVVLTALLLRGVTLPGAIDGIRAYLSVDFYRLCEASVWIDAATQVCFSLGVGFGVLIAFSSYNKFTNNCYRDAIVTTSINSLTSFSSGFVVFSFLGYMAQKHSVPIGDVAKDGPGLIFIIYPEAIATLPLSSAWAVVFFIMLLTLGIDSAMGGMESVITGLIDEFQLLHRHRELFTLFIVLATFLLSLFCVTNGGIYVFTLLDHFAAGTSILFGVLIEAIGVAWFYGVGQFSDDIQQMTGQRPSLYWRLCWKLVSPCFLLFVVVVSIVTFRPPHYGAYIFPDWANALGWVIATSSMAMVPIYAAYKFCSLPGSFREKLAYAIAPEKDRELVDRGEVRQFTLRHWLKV

Work on `COc1ccc(O[C@@H](CC(C)C)[C@H]2CCNC2)c(C)n1.O=C(O)C(O)C(O)C(=O)O` [EXAMPLE 19, (3S)-3-(1-(6-methoxy-2-methyl-3-pyridyloxy)-3-methyl-butyl)-pyrrolidine, L-tartrate (S-2)] yielded a Ki [1] of 461 ± 72 nM, a receptor occupancy at 0.3 mg/kg (serotonin transporter; po, rat frontal cortex, 0.3 mg/kg p.o.) of 5.9% and a receptor occupancy at 1 mg/kg (serotonin transporter; po, rat frontal cortex, 1 mg/kg p.o.) of 25%. It also gave a receptor occupancy at 3 mg/kg (serotonin transporter; po, rat frontal cortex, 3 mg/kg p.o.) of 43.3%, a receptor occupancy at 10 mg/kg (serotonin transporter; po, rat frontal cortex, 10 mg/kg p.o.) of 94% and a receptor occupancy at 30 mg/kg (serotonin transporter; po, rat frontal cortex, 30 mg/kg p.o.) of 106%. For the same compound, the “absolute ED80 (serotonin transporter occupancy)” value (serotonin transporter; rat, p.o.) was 7.1 mg/kg, the IC50 [2] was 7.34 ± 1.48 nM and the inhibition at 3 mg/kg ([3]; po, 3 mg/kg p.o., read-out: % Inhibition (α-MMT induced depletion of norepinephrine)) was 21%. The inhibition at 10 mg/kg ([3]; po, 10 mg/kg p.o., read-out: % Inhibition (α-MMT induced depletion of norepinephrine)) was 79%, the inhibition at 30 mg/kg ([3]; po, 30 mg/kg p.o., read-out: % Inhibition (α-MMT induced depletion of norepinephrine)) was 115% and the “% Inhibition (α-MMT induced depletion of norepinephrine)” value ([3]; 0.3 mg/kg p.o.) was 7.0%. The “% Inhibition (α-MMT induced depletion of norepinephrine)” value ([3]; 1 mg/kg p.o.) was 5.6%, the ED50 (Formalin induced pain; po, p.o., read-out: ED50 (reduction of pain behavior)) was 13.4 mg/kg and the “% reduction in total time licking” value (Formalin induced pain; 1 mg/kg p.o.) was 4.5%. For the same compound, the “% reduction in total time licking” value (Formalin induced pain; 3 mg/kg p.o.) was 14.4%, the “% reduction in total time licking” value (Formalin induced pain; 10 mg/kg p.o.) was 38.0% and the “% reduction in total time licking” value (Formalin induced pain; 30 mg/kg p.o.) was 78.4%. For the same compound, the Ki [4] was 1.08 ± 0.32 nM, the Ki [5] was 0.199 ± 0.02 nM and the IC50 [6] was 2.15 ± 0.7 nM.
